The record followed here is US11298363B2, “Triazolobenzazepines as vasopressin V1a receptor antagonists” (RICHTER GEDEON NYRT., priority 2017, dated 2022).

Structures are written as SMILES.

Assay [1] addresses T1, human vasopressin V1a receptor (Homo sapiens, UniProt P37288). Briefly: Functional assay on human vasopressin V1a receptor expressing cell line (intracellular Ca2+ fluorescence). Format: cell-based. The settings on record: 1321N1 cells, (Arg8)-vasopressin at EC80; read-out: IC50 (nM) on hV1a cell line. The protocol:
Functional Assay to Test Compounds on Human Vasopressin V1a Receptor Expressing Cell Line
The ordinary secondary messenger pathway of the measured GPCR receptor was used, the endogenous Gq-associated system.
Using 30,000 cells/plate, compounds were measured on 96-well plates. The buffer composition of the measurements was the following (expressed in mM): 140 NaCl, 5 KCl, 2 CaCl2), 2 MgCl2, 10 glucose, 10 HEPES (4-(2-hydroxyethyl)-1-piperazine-ethanesulfonic acid), 2 probenecid, pH=7.4. FLIPR Calcium 5 kit (Molecular Devices) was used as fluorescent dye, the medium was not removed prior to filling with the dye and the cells were not washed out either before or after. The incubation was performed at room temperature, the final concentration of DMSO was 1%. The materials to be measured were administered in 15 to 20 minutes pretreatment, at least two parallels of each compound in each concentration was measured.
Fluorescence signal was used to determine the intracellular Ca^2+ level, the reader was FlexStation II96. […] The fluorescence signal was logged in every 1.4 seconds for 1 minute. The reference compounds used were the following: (Arg^8)-vasopressin as agonist at concentration of EC80, determined for each plate, and relcovaptan as antagonist at 1 μM. The % of inhibition at each concentration and the IC50 value of the compounds were determined where a concentration line was also measured.
The total AVP concentration-response curve was recorded on each plate. The effect of compounds measured was expressed by percentage of relative inhibition compared to control response. […] The average IC50 values were calculated from at least three independent measurements in all cases.

The target of assay [2] is T1, human vasopressin V1a receptor. Briefly: Human vasopressin V1a receptor binding assay. The settings on record: for Ki: 1321N1 cell membranes, [3H]vasopressin, read-out: Ki (nM) on hV1a cell line. The protocol: Human Vasopressin V1a Receptor Binding Assay
Cells were suspended in preparative buffer (50 mM Tris, 1 mM EDTA, 0.1 mM PMSF) and homogenized with glass homogenizing potter. To separate the raw membrane fraction two consecutive centrifugation procedures (40,000 g for 20 minutes at 4° C.) were executed, then the membrane was taken into the preparatory buffer during a final washing step, it was divided into aliquots which were stored at −80° C. until the time of measurement.
To determine the final affinity value, the results of at least two independent experiments were taken into account.
Non-specific binding values were determined in the presence of unlabeled 1.2×10^−6 M (Arg^8)-vasopressin. Samples were incubated in a total volume of 0.33 ml for 60 minutes at 27° C. Membrane-bound and free ligands were separated by filtration through a 0.5% polyethyleneimine-impregnated UniFilter® GF/B™. After drying the filter plates, 40 μl Microscint-20 (Packard) scintillation cocktail was added to the samples. Finally, radioactivity was measured using MicroBeta^2 Microplate Counter (Perkin Elmer).
During fitting, the asymptotes are not fixed. The K values (inhibition constant) are given with Cheng-Prusoff equation Ki=IC50/[1+(L/KD)] wherein [L] is the radioligand concentration used in the experiment and [KD] is the affinity of the radioactively labelled ligand for the given receptor. The KD is determined beforehand using the Scatchard curve.

The IC50 is the concentration that gives 50% inhibition. By Ki is commonly meant a measure of affinity in units of concentration, obtained from inhibition or displacement.

T1 sequence (P37288 whole entry): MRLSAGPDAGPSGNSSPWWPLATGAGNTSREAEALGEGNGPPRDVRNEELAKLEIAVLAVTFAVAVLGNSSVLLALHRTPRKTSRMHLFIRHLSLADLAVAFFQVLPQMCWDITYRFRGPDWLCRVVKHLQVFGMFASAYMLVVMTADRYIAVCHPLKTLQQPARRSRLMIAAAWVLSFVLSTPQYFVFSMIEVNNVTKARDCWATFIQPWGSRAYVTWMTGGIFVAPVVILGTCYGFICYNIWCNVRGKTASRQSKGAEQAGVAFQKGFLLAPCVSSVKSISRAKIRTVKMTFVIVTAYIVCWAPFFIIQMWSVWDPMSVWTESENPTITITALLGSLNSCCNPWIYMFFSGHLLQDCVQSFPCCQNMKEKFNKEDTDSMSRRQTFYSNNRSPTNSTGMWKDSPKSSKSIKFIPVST

Consider `COC1(C)CCC(c2nnc3n2-c2ccc(Cl)cc2CC(NC(C)C)C3)CC1` (mixture of isomers) [Example 203, 8-chloro-1-(4-methoxy-4-methylcyclohexyl)-N-(propan-2-yl)-5,6-dihydro-4H-[1,2,4]triazolo[4,3-a][1]benzazepin-5-amine], for which the 50% inhibitory concentration (IC50) in assay [1] was found to be 210 nM. Moreover, in assay [2], the inhibitory constant (Ki) was 10.1 nM.
Take `CO[C@@H]1Cc2cc(Cl)ccc2-n2c(nnc2[C@H]2CC[C@H](C(F)(F)F)CC2)C1` (single isomer, unassigned) [Example 132]: the half-maximal inhibitory concentration (IC50) in assay [1] was determined as 2.5 nM. The Ki in assay [2] amounted to 0.3 nM.
On to `CO[C@H]1Cc2cc(Cl)ccc2-n2c(nnc2[C@H]2CC[C@H](C(F)(F)F)CC2)C1` (single isomer, unassigned) [Example 133], for which the 50% inhibitory concentration (IC50) in assay [1] worked out at 6.5 nM. Also, in assay [2], the Ki amounted to 0.4 nM.
The matching figures for `CO[C@@H]1Cc2cc(F)ccc2-n2c(nnc2[C@H]2CC[C@H](Oc3ccccn3)CC2)C1` (single isomer, unassigned) [Example 176]: 1.1 nM and 0.4 nM.
The matching figures for `CO[C@H]1Cc2cc(F)ccc2-n2c(nnc2[C@H]2CC[C@H](Oc3ccccn3)CC2)C1` (single isomer, unassigned) [Example 177]: 0.9 nM and 0.3 nM.
The matching figures for `NC1Cc2cc(Cl)ccc2-n2c(nnc2C2CCN(c3ccccn3)CC2)C1` (centres unmarked) [Example 2, 8-chloro-1-[1-(pyridin-2-yl)piperidin-4-yl]-5,6-dihydro-4H-[1,2,4]triazolo[4,3-a][1]benzazepine-5-amine]: 170 nM and 7 nM.
As to `CC(=O)NC1Cc2cc(Cl)ccc2-n2c(nnc2C2CCN(c3ccccn3)CC2)C1` (centres unmarked) [Example 3, N-[8-chloro-[1-(pyridin-2-yl)piperidin-4-yl]-5,6-dihydro-4H-[1,2,4]triazolo[4,3-a][1]benzazepin-5-yl]acetamide], the IC50 in assay [1] came out at 16 nM. Further, the Ki in assay [2] was 2.1 nM.
The matching figures for `CC(C)C(=O)NC1Cc2cc(Cl)ccc2-n2c(nnc2C2CCN(c3ccccn3)CC2)C1` (centres unmarked) [Example 4]: 825 nM and 70 nM.
The matching figures for `CC(C)(C)OC(=O)NC1Cc2cc(Cl)ccc2-n2c(nnc2[C@H]2CC[C@H](Oc3ccccn3)CC2)C1` (stereo partly drawn) [Example 5, Tert-butyl {8-chloro-1-[trans-4-(pyridin-2-yloxy)cyclohexyl]-5,6-dihydro-4H-[1,2,4]triazolo[4,3-a][1]benzazepine-5-yl}carbamate]: 17 nM and 3.8 nM.
Consider `N[C@H]1Cc2cc(Cl)ccc2-n2c(nnc2[C@H]2CC[C@H](Oc3ccccn3)CC2)C1` [Example 7, (5S)-8-chloro-1[trans-4-(pyridin-2-yloxy)cyclohexyl]-5,6-dihydro-4H-[1,2,4]triazolo[4,3-a][1]benzazepine-5-amine], for which, in assay [1], the half-maximal inhibitory concentration (IC50) was 20 nM. Also, in assay [2], the Ki is 2.1 nM.
On to `NCC(=O)NC1Cc2cc(Cl)ccc2-n2c(nnc2[C@H]2CC[C@H](Oc3ccccn3)CC2)C1` (stereo partly drawn) [Example 10, N-{8-chloro-1-[trans-4-(pyridin-2-yloxy)cyclohexyl]-5,6-dihydro-4H-[1,2,4]triazolo[4,3-a][1]benzazepin-5-yl}glycinamide], for which the IC50 in assay [1] is 12 nM. In addition, the Ki in assay [2] came out at 1.8 nM.
In the same order, the values of `NCC(=O)N[C@H]1Cc2cc(Cl)ccc2-n2c(nnc2[C@H]2CC[C@H](Oc3ccccn3)CC2)C1` [Example 11, N-{(5S)-8-chloro-1-[trans-4-(pyridin-2-yloxy)cyclohexyl]-5,6-dihydro-4H-[1,2,4]triazolo[4,3-a][1]benzazepin-5-yl}glycinamide] are 480 nM and 32 nM.
Turning to `N[C@H](C(=O)N[C@@H]1Cc2cc(Cl)ccc2-n2c(nnc2[C@H]2CC[C@H](Oc3ccccn3)CC2)C1)c1ccccc1` [Example 13, (2S)-2-amino-N-{(5R)-8-chloro-1-[trans-4-(pyridin-2-yloxy)cyclohexyl]-5,6-dihydro-4H-[1,2,4]triazolo[4,3-a][1]benzazepin-5-yl}-2-phenylacetamide], in assay [1], the half-inhibitory concentration (IC50) amounted to 45 nM. The inhibitory constant (Ki) in assay [2] was determined as 5 nM.
For `N[C@@H](C(=O)N[C@@H]1Cc2cc(Cl)ccc2-n2c(nnc2[C@H]2CC[C@H](Oc3ccccn3)CC2)C1)c1ccccc1` [Example 14, (2R)-2-amino-N-{(5R)-8-chloro-1-[trans-4-(pyridin-2-yloxy)cyclohexyl]-5,6-dihydro-4H-[1,2,4]triazolo[4,3-a][1]benzazepin-5-yl}-2-phenylacetamide], in assay [1], the IC50 was determined as 10 nM. For the same compound, in assay [2], the Ki amounted to 1.1 nM.
As to `O=C(CO)NC1Cc2cc(Cl)ccc2-n2c(nnc2[C@H]2CC[C@H](Oc3ccccn3)CC2)C1` (stereo partly drawn) [Example 15, N-{8-chloro-1-[trans-4-(pyridin-2-yloxy)cyclohexyl]-5,6-dihydro-4H-[1,2,4]triazolo[4,3-a][1]benzazepin-5-yl}-2-hydroxyacetamide], the 50% inhibitory concentration (IC50) in assay [1] amounted to 3.7 nM. Further, in assay [2], the inhibition constant (Ki) amounted to 0.4 nM.
In the same order, the values of `CN(C)C(=O)NC1Cc2cc(Cl)ccc2-n2c(nnc2[C@H]2CC[C@H](Oc3ccccn3)CC2)C1` (stereo partly drawn) [Example 16, 3-{8-chloro-1-[trans-4-(pyridin-2-yloxy)cyclohexyl]-5,6-dihydro-4H-[1,2,4]triazolo[4,3-a][1]benzazepin-5-yl}-1,1-dimethylurea] are 10 nM and 3 nM.
The matching figures for `CN(C)CC(=O)NC1Cc2cc(Cl)ccc2-n2c(nnc2[C@H]2CC[C@H](Oc3ccccn3)CC2)C1` (stereo partly drawn) [Example 17, N-{8-chloro-1-[trans-4-(pyridin-2-yloxy)cyclohexyl]-5,6-dihydro-4H-[1,2,4]triazolo[4,3-a][1]benzazepin-5-yl}-N^2,N^2-dimethylglycinamide]: 35 nM and 2.1 nM.
Consider `CN(C)C1Cc2cc(Cl)ccc2-n2c(nnc2[C@H]2CC[C@H](Oc3ccccn3)CC2)C1` (stereo partly drawn) [Example 22, 8-chloro-N,N-dimethyl-1-[trans-4-(pyridin-2-yloxy)cyclohexyl]-5,6-dihydro-4H-[1,2,4]triazolo[4,3-a][1]benzazepine-5-amine], for which the IC50 in assay [1] stood at 2.8 nM. Also, in assay [2], the inhibition constant (Ki) came to 0.5 nM.
In the same order, the values of `Clc1ccc2c(c1)CC(NC1CCC1)Cc1nnc([C@H]3CC[C@H](Oc4ccccn4)CC3)n1-2` (stereo partly drawn) [Example 27, 8-chloro-N-cyclobutyl-1-[trans-4-(pyridin-2-yloxy)cyclohexyl]-5,6-dihydro-4H-[1,2,4]triazolo[4,3-a][1]benzazepine-5-amine] are 7 nM and 1.1 nM.
In the same order, the values of `Clc1ccc2c(c1)CC(NC1COC1)Cc1nnc([C@H]3CC[C@H](Oc4ccccn4)CC3)n1-2` (stereo partly drawn) [Example 28, 8-chloro-N-(oxetan-3-yl)-1[trans-4-(pyridin-2-yloxy)cyclohexyl]-5,6-dihydro-4H-[1,2,4]triazolo[4,3-a][1]benzazepine-5-amine] are 5.4 nM and 0.7 nM.
In the same order, the values of `FC1(F)CCC(NC2Cc3cc(Cl)ccc3-n3c(nnc3[C@H]3CC[C@H](Oc4ccccn4)CC3)C2)CC1` (stereo partly drawn) [Example 30, 8-chloro-N-(4,4-difluorocyclohexyl)-1-[trans-4-(pyridin-2-yloxy)cyclohexyl]-5,6-dihydro-4H-[1,2,4]triazolo[4,3-a][1]benzazepine-5-amine] are 15 nM and 1.4 nM.
For the compound `CC(C)NC1Cc2cc(Cl)ccc2-n2c(nnc2C2CC(F)(F)C2)C1` (centres unmarked) [Example 41, 8-chloro-1-(3,3-difluorocyclobutyl)-N-(propan-2-yl)-5,6-dihydro-4H-[1,2,4]triazolo[4,3-a][1]benzazepine-5-amine], the Ki in assay [2] was 600 nM.
For `CC(C)NC1Cc2cc(Cl)ccc2-n2c(nnc2C2CCC(F)(F)CC2)C1` (centres unmarked) [Example 42, 8-chloro-1-(4,4-difluorocyclohexyl)-N-(propan-2-yl)-5,6-dihydro-4H-[1,2,4]triazolo[4,3-a][1]benzazepine-5-amine], the “% at 1 μM, printed in the column Ki (nM) on hV1a cell line” value in assay [2] (at 1 μM) is reported as 42% at 1 μM.
